Experimental data from patent publication US20240352309A1, “FLUORESCENT DYE, AND PREPARATION METHOD THEREFOR AND USE THEREOF” (FLUORESCENCE DIAGNOSIS (SHANGHAI) BIOTECH COMPANY LTD., priority 2021, published 2024).

Legend:
[1] = Fluorescence emission in glycerol and methanol (Test Example 1); type: physicochemical; conditions: for Fluorescence intensity ratio in glycerol and methanol: 1×10^−5 M in glycerol vs methanol, maximum excitation wavelength; for Emission wavelength: 1×10^−5 M, excited at maximum excitation wavelength of each dye
Description: The fluorescent dye (molecular rotors) prepared in Examples dye1-dye42 were dissolved in DMSO each to prepare a mother solution with a concentration of 1×10^−2 M, and each mother solution was added to glycerol and methanol respectively and was mixed well, and a solution with a final concentration of 1×10^−5 M was prepared.

[2] = tested on: RNA aptamer in stable cell line (293T/17); test: Flow detection of cells expressing RNA aptamer (Test Example 6); type: cell-based; conditions: 1 μM dye in PBS, 5 minutes
[3] = Background fluorescence in PBS (Test Example 4); type: physicochemical; conditions: 1×10^−5 M, relative to contrast dyes of the same group (dye48, dye49, dye50, dye47)
Description: The dye1 and dye48; dye22 and dye49; dye40 and dye50; dye9, dye10 and dye47 were added to PBS to prepare a solution with a final concentration of 1×10^−5 M, corresponding maximum excitation wavelengths were used for exciting the dyes so that their fluorescence intensities in PBS could be detected, and normalization was performed with the strongest fluorescence intensity in each group of samples as 100, as shown respectively in FIGS. 21, 22, 23 and 24.

[4] = Fluorescence emission in glycerol-diethanol mixed solutions of different viscosities (Test Example 2); type: physicochemical; conditions: glycerol-diethanol mixed solution, 16.4-946.0 cp, 1×10^−5 M
Text: The dye7, dye9, dye12, dye25, dye40 were respectively added into a glycerol-diethanol mixed solution with the following viscosities: 16.4 cp (the volume ratio of glycerol was 0%), 29.8 cp (the volume ratio of glycerol was 20%), 64.5 cp (the volume ratio of glycerol was 40%), 143.5 cp (the volume ratio of glycerol was 60%), 377.0 cp (the volume ratio of glycerol was 80%), 946.0 cp (the volume ratio of glycerol was 100%), so as to prepare solutions with a final concentration of 1×10^−5 M; the fluorescence emission spectra under different viscosity conditions were shown as FIGS. 1, 3, 5, 7 and 9, wherein the emission wavelengths of the above-mentioned molecular rotors were respectively 620 nm, 576 nm, 650 nm, 670 nm and 720 nm. According to the results, fluorescence intensities of fluorescent dyes of the same concentration increase with ambient viscosity.

[5] = Fluorescence in solvents with different polarities (Test Example 2); type: physicochemical; conditions: methylbenzene, ethyl acetate, methyl alcohol, acetonitrile, dimethyl sulfoxide

Fluorescence intensity ratio in glycerol and methanol [1]	Emission wavelength [1] [nm]	Compound	also measured
562	717	CN(CCO)c1ccc2c(c1)C(C)(C)C(/C=C1\SC(=S)NC1=O)=N2 [dye45]	–
984	620	CN1CCOc2cc(/C=C3\SC(=O)NC3=S)ccc21 [dye4]	–
682	690	CCN1C(=O)S/C(=C\c2cc3ccc(N(C)CCO)cc3o2)C1=O [dye28]	–
985	640	CN(CCNS(C)(=O)=O)c1ccc2cc(/C=C3\NC(=S)NC3=O)sc2c1 [dye23]	–
982	730	CN1C(=S)S/C(=C\c2cc3sc(N(C)CCO)cc3s2)C1=S [dye16]	–
741	730	CN(CCO)c1cc2cc3sc(/C=C4\OC(=S)NC4=S)cc3cc2s1 [dye38]	–
510	735	CN(CCO)c1ccc2c(c1)sc1cc(/C=C3\SC(=S)NC3=O)sc12 [dye36]	–
1098	635	O=C1NC(=S)N/C1=C\c1cc2sc(N(CCO)CCO)cc2s1 [dye21]	dye background fluorescence before binding [2]: very low; fluorescence after binding to RNA aptamer in cells [2]: notably activated
638	675	S=C1NC(=S)/C(=C/c2cc3c4c(c2)CCCN4CCC3)S1 [dye10]	background fluorescence in PBS [3]: lower background fluorescence
993	630	CN(CCO)c1cc2sc(/C=C3\NC(=S)N(CCC(=O)O)C3=O)cc2s1 [dye17]	–
695	730	CN1C(=S)N/C(=C\c2cc3c(s2)-c2ccc(N(C)CCO)cc2C3(C)C)C1=S [dye40]	Emission wavelength [4]: 720 nm; viscosity response of fluorescence intensity [4]: sensitive to viscosity; background fluorescence in PBS [3]: lower background fluorescence; fluorescence intensity in solvents with different polarities [5]: weak
761	640	CN(C)c1ccc2cc(/C=C3\SC(=S)N(N)C3=O)sc2c1 [dye30]	–
954	590	CN(CCO)c1cc2sc(/C=C3\SC(=O)NC3=O)cc2s1 [dye11]	–
465	680	CN(CCO)c1ccc2c(c1)C(C)(C)C(/C=C1\SC(=O)NC1=O)=N2 [dye44]	–
1098	650	CCCCCCCCCCN(C)c1cc2sc(/C=C3\SC(=S)N(C)C3=O)cc2s1 [dye19]	–
1026	588	CN1C(=O)/C(=C/c2cc3sc(N(C)CCOCCOCCO)cc3s2)SC1=S [dye18]	–
587	532	CCN1C(=O)/C(=C/c2ncc(N(C)CCO)s2)SC1=S [dye2]	–
461	622	CN(C)c1ccc2nc(/C=C3\SC(=N)NC3=N)oc2c1 [dye33]	–

Fluorescence intensity ratio in glycerol and methanol [1]	Emission wavelength [1] [nm]	Compound	also measured
1133	650	O=C1NC(=S)S/C1=C\c1cc2sc(N(CCO)CCO)cc2s1 [dye20]	–
852	720	CN(CCO)c1cc2sc(/C=C3\SC(=S)NC3=S)cc2s1 [dye14]	–
630	680	CN(CCO)c1ccc2c(c1)C(C)(C)c1cc(/C=C3\SC(=O)NC3=O)ccc1-2 [dye34]	dye background fluorescence before binding [2]: very low; fluorescence after binding to RNA aptamer in cells [2]: notably activated
687	605	CN(CCO)c1ccc2cc(/C=C3\SC(=S)NC3=O)sc2c1 [dye22]	background fluorescence in PBS [3]: lower background fluorescence
465	750	CN(C)CCN(C)c1ccc2cc(/C=C3\SC(=O)NC3=O)sc2c1 [dye24]	–
980	685	CN(C)c1ccc2cc(/C=C3\SC(=S)N(CCC(=O)O)C3=S)oc2c1 [dye31]	–
891	655	CN1C(=O)/C(=C/c2cc3sc(N(C)CCO)cc3s2)SC1=S [dye15]	–
530	740	CN(CCO)c1ccc2c(c1)C(C)(C)c1cc(/C=C3\SC(=S)NC3=O)ccc1-2 [dye35]	–
765	590	CN(CCO)c1ccc2nc(/C=C3\SC(=S)NC3=O)sc2c1 [dye27]	–
627	820	CN(CCO)c1ccc2c(c1)C(C)(C)c1cc(/C=C3\SC(=S)NC3=S)sc1-2 [dye39]	–
364	800	CN(CCO)c1cc2c(s1)-c1sc(/C=C3\SC(=S)NC3=S)cc1C2(C)C [dye42]	–
–	–	CN(C)c1ccc(C2=C(C#N)C(=C(C#N)C#N)OC2(C)C)cc1 [dye50, reference compound]	dye background fluorescence before binding [2]: obvious
687	654	CN(C)c1ccc2cc(/C=C3\NC(=S)NC3=S)oc2c1 [dye32]	–
1021	550	CN1CCSc2cc(/C=C3\SC(=O)NC3=O)ccc21 [dye5]	–
951	586	O=C1NC(=S)N/C1=C\c1cc2c3c(c1)CCCN3CCC2 [dye9]	Emission wavelength [4]: 576 nm; viscosity response of fluorescence intensity [4]: sensitive to viscosity; background fluorescence in PBS [3]: lower background fluorescence; fluorescence intensity in solvents with different polarities [5]: weak
721	650	CN1C(=O)/C(=C/c2nc3ccc(N(C)CCO)cc3o2)NC1=S [dye29]	–
754	620	CC1=CC(C)(C)N(C)c2ccc(/C=C3\SC(=O)NC3=S)cc21 [dye7]	Emission wavelength [4]: 620 nm; viscosity response of fluorescence intensity [4]: sensitive to viscosity; fluorescence intensity in solvents with different polarities [5]: weak

Compound	Fluorescence intensity ratio in glycerol and methanol [1]	Emission wavelength [1] [nm]	also measured
CN1CCOc2cc(/C=C3\NC(=S)NC3=O)ccc21 [dye3]	637	580	dye background fluorescence before binding [2]: very low; fluorescence after binding to RNA aptamer in cells [2]: notably activated
CN(CCO)c1cc2c(s1)-c1sc(/C=C3\OC(=N)NC3=N)cc1[Si]2(C)C [dye37]	620	720	–
CN1C(=O)/C(=C/c2ccc3cc(N(C)CCCl)ccc3n2)SC1=S [dye26]	871	660	–
